According to ChEMBL document CHEMBL5584206, “Discovery of (S)-3-(4-(benzyloxy)phenyl)-2-(2-phenoxyacetamido)propanoic acid derivatives as a new class of GPR34 antagonists” (Bioorg Med Chem Lett, 2024):
Each block holds one compound with its values, some of them ahead of it. Active and inactive are the calls of the source. The rule behind the calls is not given here.

How the values were obtained:
[1] = biological target: T1, Probable G-protein coupled receptor 34 (Homo sapiens, UniProt Q9UPC5); assay: Antagonist activity at GPR34 (unknown origin) by Glosensor cAMP assay; type: functional
P2Y purinoceptor 12 [2] = biological target: T2, P2Y purinoceptor 12 (Homo sapiens, UniProt Q9H244); assay: Agonist activity at P2Y12R (unknown origin); type: functional
[3] = biological target: T3, C-X-C chemokine receptor type 5 (Homo sapiens, UniProt P32302); assay: Agonist activity at CXCR5 (unknown origin); type: functional
T3 sequence (P32302 whole entry): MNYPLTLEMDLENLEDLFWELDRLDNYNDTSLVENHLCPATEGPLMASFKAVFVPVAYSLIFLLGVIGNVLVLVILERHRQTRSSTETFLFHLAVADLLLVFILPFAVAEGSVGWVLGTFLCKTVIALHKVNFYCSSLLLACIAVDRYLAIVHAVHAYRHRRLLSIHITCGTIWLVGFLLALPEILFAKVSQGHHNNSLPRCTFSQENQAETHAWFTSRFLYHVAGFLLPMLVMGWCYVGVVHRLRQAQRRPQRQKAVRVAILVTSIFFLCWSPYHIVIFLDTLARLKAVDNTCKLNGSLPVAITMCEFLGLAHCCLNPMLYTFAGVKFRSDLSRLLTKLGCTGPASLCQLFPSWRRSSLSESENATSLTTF

[4] = biological target: T3, C-X-C chemokine receptor type 5; assay: Antagonist activity at CXCR5 (unknown origin); type: functional
Mus musculus = assay: Antinociceptive activity in mouse model of SNI-induced neuropathic pain assessed as reduction in mechanical allodynia at 10 to 20 mg/kg, ip bid; type: functional, organism-based; conditions: dose 10-20 mg/kg
[5] = biological target: T1, Probable G-protein coupled receptor 34; assay: Antagonist activity at GPR34 (unknown origin) by Tango assay; type: functional
[6] = Toxicity in C57BL/6 mouse assessed as indications of organ damage at 100 mg/kg, ip bid for 6 days consecutively; type: organism-based; conditions: in vivo, 144 h, time 6 day
[7] = Cytotoxicity against human HUVEC cells incubated for 72 hrs by MTT assay; type: toxicity, cell-based
[8] = biological target: T4, Lysophosphatidic acid receptor 4 (Homo sapiens, UniProt Q99677); assay: Agonist activity at LPAR4 (unknown origin); type: functional
Adenosine receptor A3 [9] = biological target: T5, Adenosine receptor A3 (Homo sapiens, UniProt P0DMS8); assay: Antagonist activity at A3AR (unknown origin); type: functional
T5 sequence (P0DMS8 whole entry): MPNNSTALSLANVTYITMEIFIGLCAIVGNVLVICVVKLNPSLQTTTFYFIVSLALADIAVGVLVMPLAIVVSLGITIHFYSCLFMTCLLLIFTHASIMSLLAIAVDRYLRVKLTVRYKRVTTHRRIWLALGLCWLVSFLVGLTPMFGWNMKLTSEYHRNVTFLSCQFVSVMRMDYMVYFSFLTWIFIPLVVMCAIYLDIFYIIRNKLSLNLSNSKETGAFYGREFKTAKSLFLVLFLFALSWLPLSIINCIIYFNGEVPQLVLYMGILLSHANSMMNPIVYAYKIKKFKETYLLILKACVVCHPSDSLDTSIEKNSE

[10] = Cytotoxicity against HEK293 cells incubated for 72 hrs by MTT assay; type: toxicity, cell-based; conditions: human
Adenosine receptor A3 [11] = biological target: T5, Adenosine receptor A3; assay: Agonist activity at A3AR (unknown origin); type: functional
[12] = Cytotoxicity against African green monkey COS-7 cells incubated for 72 hrs by MTT assay; type: toxicity, cell-based, Chlorocebus aethiops
Cannabinoid receptor 2 [13] = biological target: T6, Cannabinoid receptor 2 (Homo sapiens, UniProt P34972); assay: Antagonist activity at CB2 (unknown origin); type: functional
[14] = biological target: T7, Lysophosphatidic acid receptor 3 (Homo sapiens, UniProt Q9UBY5); assay: Antagonist activity at LPAR3 (unknown origin); type: functional
T7 sequence (Q9UBY5 whole entry): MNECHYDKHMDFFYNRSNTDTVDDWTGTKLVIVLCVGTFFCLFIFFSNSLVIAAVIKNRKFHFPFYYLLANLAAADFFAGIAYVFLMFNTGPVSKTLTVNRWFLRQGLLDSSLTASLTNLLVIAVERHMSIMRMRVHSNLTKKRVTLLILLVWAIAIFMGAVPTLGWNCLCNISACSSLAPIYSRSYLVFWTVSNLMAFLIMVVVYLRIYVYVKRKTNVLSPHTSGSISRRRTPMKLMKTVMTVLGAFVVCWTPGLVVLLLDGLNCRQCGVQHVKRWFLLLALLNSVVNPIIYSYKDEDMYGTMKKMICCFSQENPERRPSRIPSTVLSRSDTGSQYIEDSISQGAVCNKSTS

[15] = Cytotoxicity against human BEAS-2B cells incubated for 72 hrs by MTT assay; type: toxicity, cell-based
Cannabinoid receptor 2 [16] = biological target: T6, Cannabinoid receptor 2; assay: Agonist activity at CB2 (unknown origin); type: functional
[17] = biological target: T7, Lysophosphatidic acid receptor 3; assay: Agonist activity at LPAR3 (unknown origin); type: functional
P2Y purinoceptor 12 [18] = biological target: T2, P2Y purinoceptor 12; assay: Antagonist activity at P2Y12R (unknown origin); type: functional
[19] = Acute toxicity in C57BL/6 mouse assessed as animal death at 200 mg/kg, ip; type: organism-based; conditions: in vivo
[20] = Toxicity in C57BL/6 mouse assessed as body weight change at 100 mg/kg, ip bid for 6 days consecutively; type: organism-based; conditions: in vivo, 144 h, time 6 day
[21] = biological target: T4, Lysophosphatidic acid receptor 4; assay: Antagonist activity at LPAR4 (unknown origin); type: functional
[22] = Cytotoxicity against human LX2 cells incubated for 72 hrs by MTT assay; type: toxicity, cell-based; conditions: LX-2 cells
[23] = Cytotoxicity against human Muller cells incubated for 72 hrs by MTT assay; type: toxicity, cell-based, Muller cell

T1 sequence (Q9UPC5 whole entry): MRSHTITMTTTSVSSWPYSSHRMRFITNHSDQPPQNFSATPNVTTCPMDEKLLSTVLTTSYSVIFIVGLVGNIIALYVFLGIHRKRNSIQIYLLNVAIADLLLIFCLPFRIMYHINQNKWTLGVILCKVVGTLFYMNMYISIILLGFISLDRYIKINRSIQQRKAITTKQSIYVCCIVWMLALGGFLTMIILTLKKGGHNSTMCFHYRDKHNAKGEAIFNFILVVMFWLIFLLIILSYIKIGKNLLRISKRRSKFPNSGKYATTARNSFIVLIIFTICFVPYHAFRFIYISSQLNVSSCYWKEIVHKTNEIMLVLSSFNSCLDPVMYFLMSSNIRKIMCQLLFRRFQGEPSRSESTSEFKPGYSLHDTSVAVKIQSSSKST
T2 sequence (Q9H244 whole entry): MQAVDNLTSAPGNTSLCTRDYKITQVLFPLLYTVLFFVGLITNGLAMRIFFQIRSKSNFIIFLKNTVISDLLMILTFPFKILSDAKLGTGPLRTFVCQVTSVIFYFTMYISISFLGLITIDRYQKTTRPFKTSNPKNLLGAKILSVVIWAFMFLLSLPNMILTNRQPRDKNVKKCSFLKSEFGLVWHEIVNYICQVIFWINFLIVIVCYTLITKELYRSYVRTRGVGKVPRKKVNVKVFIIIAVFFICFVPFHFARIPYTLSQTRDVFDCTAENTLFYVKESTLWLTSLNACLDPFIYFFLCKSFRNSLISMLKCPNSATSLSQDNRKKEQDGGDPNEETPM
T4 sequence (Q99677 whole entry): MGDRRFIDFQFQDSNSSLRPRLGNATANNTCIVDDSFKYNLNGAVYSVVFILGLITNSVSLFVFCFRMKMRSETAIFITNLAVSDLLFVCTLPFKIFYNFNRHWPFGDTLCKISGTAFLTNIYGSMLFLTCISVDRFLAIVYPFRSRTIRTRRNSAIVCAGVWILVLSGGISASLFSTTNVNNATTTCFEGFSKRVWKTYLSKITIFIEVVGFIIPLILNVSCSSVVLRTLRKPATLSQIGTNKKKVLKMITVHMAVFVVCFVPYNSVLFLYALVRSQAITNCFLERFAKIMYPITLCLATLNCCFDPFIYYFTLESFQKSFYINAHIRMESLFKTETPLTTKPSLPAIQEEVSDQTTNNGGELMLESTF
T6 sequence (P34972 whole entry): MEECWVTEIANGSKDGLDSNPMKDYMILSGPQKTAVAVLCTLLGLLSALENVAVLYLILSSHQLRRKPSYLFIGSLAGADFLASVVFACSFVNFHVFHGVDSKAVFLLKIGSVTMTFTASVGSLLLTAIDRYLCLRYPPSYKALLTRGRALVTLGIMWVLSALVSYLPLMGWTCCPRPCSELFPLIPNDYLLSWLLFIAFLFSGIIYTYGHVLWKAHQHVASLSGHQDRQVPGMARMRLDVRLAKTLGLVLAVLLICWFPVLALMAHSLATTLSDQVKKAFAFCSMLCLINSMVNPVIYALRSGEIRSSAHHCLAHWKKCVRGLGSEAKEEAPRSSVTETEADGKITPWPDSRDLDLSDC

Structure (SMILES): Cn1nccc1-c1ccc(OCC(=O)N[C@@H](Cc2ccc(OCc3ccccc3)cc2)C(=O)O)cc1
IC50 [1]: > 30 µM

Structure (SMILES): COc1cccc(-c2ccc(OCC(=O)N[C@@H](Cc3ccc(OCc4ccccc4)cc3)C(=O)O)cc2)c1
IC50 [1]: > 30 µM

Structure (SMILES): O=C(COc1ccc(-c2ccc(F)cc2)cc1)N[C@@H](Cc1ccc(OCc2ccccc2)cc1)C(=O)O
IC50 [1]: 0.968 µM

Structure (SMILES): O=C(COc1ccc(-c2cccc(Cl)c2)cc1)N[C@@H](Cc1ccc(OCc2ccccc2)cc1)C(=O)O
EC50 (P2Y purinoceptor 12 [2]): > 10 µM
EC50 [3]: > 10 µM
EC50 [4]: > 10 µM
IC50 [1]: 0.68 µM
Activity (Mus musculus): Active
IC50 [5]: 0.059 µM
Activity [6]: Non-Toxic
IC50 at 72 h [7]: > 30 µM
EC50 [8]: > 10 µM
EC50 (Adenosine receptor A3 [9]): > 10 µM
IC50 at 72 h [10]: > 30 µM
EC50 (Adenosine receptor A3 [11]): > 10 µM
IC50 at 72 h [12]: > 30 µM
EC50 (Cannabinoid receptor 2 [13]): > 10 µM
EC50 [14]: > 10 µM
IC50 at 72 h [15]: > 30 µM
EC50 (Cannabinoid receptor 2 [16]): > 10 µM
EC50 [17]: > 10 µM
EC50 (P2Y purinoceptor 12 [18]): > 10 µM
Activity [19]: Non-Toxic
Activity [20]: Non-Toxic
EC50 [21]: > 10 µM
IC50 at 72 h [22]: > 30 µM
IC50 at 72 h [23]: > 30 µM

Structure (SMILES): O=C(COc1ccc(-c2cccc(C(F)(F)F)c2)cc1)N[C@@H](Cc1ccc(OCc2ccccc2)cc1)C(=O)O
IC50 [1]: 1.31 µM

Structure (SMILES): Cc1ccc(OCC(=O)N[C@@H](Cc2ccc(OCc3ccccc3)cc2)C(=O)O)cc1
IC50 [1]: > 30 µM

Structure (SMILES): CC(C)c1ccc(OCC(=O)N[C@@H](Cc2ccc(OCc3ccccc3)cc2)C(=O)O)cc1
IC50 [1]: > 30 µM

Structure (SMILES): N#Cc1cccc(OCC(=O)N[C@@H](Cc2ccc(OCc3ccccc3)cc2)C(=O)O)c1
IC50 [1]: 17.4 µM

Structure (SMILES): O=C(COc1cccnc1)N[C@@H](Cc1ccc(OCc2ccccc2)cc1)C(=O)O
IC50 [1]: > 30 µM

Structure (SMILES): O=C(COc1ccc(-c2cccc(Cl)c2)cc1)N[C@@H](CC1CCCCC1)C(=O)O
IC50 [1]: > 30 µM

Structure (SMILES): O=C(COc1ccc(F)cc1)N[C@@H](Cc1ccc(OCc2ccccc2)cc1)C(=O)O
IC50 [1]: 11.6 µM

Structure (SMILES): O=C(COc1ccccc1)N[C@@H](Cc1ccc(OCc2ccccc2)cc1)C(=O)O
IC50 [1]: > 30 µM

Structure (SMILES): COc1cccc(OCC(=O)N[C@@H](Cc2ccc(OCc3ccccc3)cc2)C(=O)O)c1
IC50 [1]: > 30 µM

Structure (SMILES): O=C(COc1ccc(-c2ccccc2F)cc1)N[C@@H](Cc1ccc(OCc2ccccc2)cc1)C(=O)O
IC50 [1]: > 30 µM

Structure (SMILES): O=C(COc1ccccc1F)N[C@@H](Cc1ccc(OCc2ccccc2)cc1)C(=O)O
IC50 [1]: > 30 µM

Structure (SMILES): O=C(COc1cccc(F)c1)N[C@@H](Cc1ccc(OCc2ccccc2)cc1)C(=O)O
IC50 [1]: 13.9 µM

More lines, now with the values ahead:

IC50 [1]: 2.98 µM
Structure (SMILES): O=C(COc1ccc(-c2cccc(Cl)c2)cc1)N[C@H](Cc1ccc(OCc2ccccc2)cc1)C(=O)O

IC50 [1]: > 30 µM
Structure (SMILES): O=C(COc1ccc(-c2cccc(Cl)c2)cc1)N[C@@H](Cc1ccc(O)cc1)C(=O)O

IC50 [1]: > 30 µM
Structure (SMILES): O=C(COc1ccc(-c2cccc(Cl)c2)cc1)N[C@@H](Cc1ccccc1)C(=O)O

IC50 [1]: > 30 µM
Structure (SMILES): COC(=O)[C@H](Cc1ccc(OCc2ccccc2)cc1)NC(=O)COc1ccc(-c2cccc(Cl)c2)cc1

IC50 [1]: > 30 µM
Structure (SMILES): C[C@H](NC(=O)COc1ccc(-c2cccc(Cl)c2)cc1)C(=O)O

IC50 [1]: > 30 µM
Structure (SMILES): O=C(COc1ccc(Cl)cc1)N[C@@H](Cc1ccc(OCc2ccccc2)cc1)C(=O)O

IC50 [1]: 1.57 µM
Structure (SMILES): O=C(COc1ccc(-c2ccc(Cl)cc2)cc1)N[C@@H](Cc1ccc(OCc2ccccc2)cc1)C(=O)O

IC50 [1]: > 30 µM
Structure (SMILES): NC(=O)[C@H](Cc1ccc(OCc2ccccc2)cc1)NC(=O)COc1ccc(-c2cccc(Cl)c2)cc1

IC50 [1]: 1.28 µM
Structure (SMILES): O=C(COc1ccc(-c2cccc(F)c2)cc1)N[C@@H](Cc1ccc(OCc2ccccc2)cc1)C(=O)O
